Broadly, the IC50 is the concentration that inhibits the measured activity by half.

Bounds are passed on as bounds.

The target of the experiment is T1, KRAS WT/SOS1 (Homo sapiens, UniProt Q07889).
T1 sequence (Q07889 1-1333): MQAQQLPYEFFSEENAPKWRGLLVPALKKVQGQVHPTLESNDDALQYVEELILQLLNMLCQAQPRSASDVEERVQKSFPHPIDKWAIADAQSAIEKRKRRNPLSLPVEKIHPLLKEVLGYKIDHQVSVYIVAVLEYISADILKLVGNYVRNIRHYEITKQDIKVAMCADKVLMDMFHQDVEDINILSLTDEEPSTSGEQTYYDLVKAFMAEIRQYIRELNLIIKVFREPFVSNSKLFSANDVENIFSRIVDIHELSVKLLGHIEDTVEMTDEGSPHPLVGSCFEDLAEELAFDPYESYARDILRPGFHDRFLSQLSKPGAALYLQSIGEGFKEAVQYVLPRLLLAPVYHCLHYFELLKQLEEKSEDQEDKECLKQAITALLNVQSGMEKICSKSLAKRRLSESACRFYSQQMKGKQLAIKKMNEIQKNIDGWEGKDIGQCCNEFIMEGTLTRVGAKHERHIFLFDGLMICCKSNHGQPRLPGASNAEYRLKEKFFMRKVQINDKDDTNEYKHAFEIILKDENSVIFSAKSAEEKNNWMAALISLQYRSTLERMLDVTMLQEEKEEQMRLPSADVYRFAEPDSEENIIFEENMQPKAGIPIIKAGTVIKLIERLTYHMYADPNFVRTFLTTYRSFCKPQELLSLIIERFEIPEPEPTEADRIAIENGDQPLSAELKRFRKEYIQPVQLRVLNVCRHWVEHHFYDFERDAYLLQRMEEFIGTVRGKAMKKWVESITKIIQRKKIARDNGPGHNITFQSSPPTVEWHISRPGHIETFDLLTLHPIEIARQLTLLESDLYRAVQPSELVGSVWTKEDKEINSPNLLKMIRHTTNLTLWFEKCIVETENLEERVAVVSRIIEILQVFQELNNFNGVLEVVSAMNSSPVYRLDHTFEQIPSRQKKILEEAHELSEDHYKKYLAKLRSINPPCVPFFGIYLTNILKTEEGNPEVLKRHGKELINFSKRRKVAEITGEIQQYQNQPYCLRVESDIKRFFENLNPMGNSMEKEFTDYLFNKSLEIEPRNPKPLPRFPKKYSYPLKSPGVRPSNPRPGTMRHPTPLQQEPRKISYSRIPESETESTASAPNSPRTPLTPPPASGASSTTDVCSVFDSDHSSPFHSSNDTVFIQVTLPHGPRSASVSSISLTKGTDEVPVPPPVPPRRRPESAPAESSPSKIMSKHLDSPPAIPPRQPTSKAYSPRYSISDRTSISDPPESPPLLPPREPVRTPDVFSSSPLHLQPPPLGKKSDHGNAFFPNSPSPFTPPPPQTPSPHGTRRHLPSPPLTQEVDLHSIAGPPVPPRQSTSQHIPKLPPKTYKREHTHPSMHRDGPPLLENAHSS
As to the kind of experiment: HTRF KRAS WT/SOS1 PPI kit (Cisbio) screen for SOS1 inhibitors. The format is binding. The note with it: 10-point 1/2-log dilution from 10 μM, 60 minutes at room temperature. On the procedure:
Compounds were screened using an HTRF KRAS WT/SOS1 PPI kit provided by Cis bio, according to the manufacturer's instructions, with the modifications described below. All reagents were allowed to equilibrate to room temperature and diluted to working stock in Binding Domain Detection buffer (BDD buffer). Stock solutions were prepared by adding 1 part Tag1-KRAS WT/GTP to 1 part Tag2-SOS1 and 1 part BDD. Separately, 1 part Anti-Tag1 XL665 antibody premix was added to Anti-Tag2 Tb cryptate antibody premix. BI-3406 (Selleck Chemicals) was used as a standard, solubilised to 10 mM in DMSO. Test compounds were also solubilised to 10 mM in DMSO. […] Per well, 6 μL of Tag1-KRAS WT/GTP premix, 4 ul Tag2-SOS1 premix and 10 μl of Anti-Tag1 XL665 and Anti-Tag2 Tb cryptate antibodies were then added using a E1-ClipTip™ Electronic Adjustable Multichannel Equalizer Pipette. After the final addition, the plate was covered and placed in the benchtop incubator set at 22° C. The reaction was incubated for 60 minutes at room temperature, prior to reading using a Pherastar FSX plate reader.
Background: TR-FRET usually uses a lanthanide donor and a delayed reading to cut background.

`Cc1nc(N[C@H](C)c2cccc(C(F)F)c2F)c2cc(S(=O)(=O)N3CC4CC(C3)O4)ncc2n1` [Example 18, 6-((6-oxa-3-azabicyclo [3.1.1]heptan-3-yl)sulfonyl)-N—((R)-1-(3-(difluoromethyl)-2-fluorophenyl)ethyl)-2-methylpyrido[3,4-d] pyrimidin-4-amine] came in with an IC50 below 100 nM.

These data come from patent US20260115194A1, “NEW TREATMENTS FOR PAIN” (Sevenless Therapeutics Limited, priority 2023, published 2026).
